Data as given in patent publication US6087493A, “Porphyrin compounds as telomerase inhibitors” (Regents of the University of Texas System, priority 1998, dated 2000).

Assays:
DU145 = test: Cytotoxicity (MTT) DU145; format: cell-based, human; details: Homo sapiens, DU-145; DU145 (prostate), 4-7 days; read-out: IC 50 cytotoxicity
Protocol: (§1) The cells were cultured in the presence of the porphyrins incubator for 4-7 days and then treated with 3-(4,5-dimethylthiazol-2-yl)-2,5-diphenyl-tetrazolium bromide (MTT). Formazan concentration was quantitated by absorbance at 570 nm.

MDA-231 = test: Cytotoxicity (MTT) MDA-231; format: cell-based, human; details: Homo sapiens, MDA-MB-231; MDA-231 (breast), 4-7 days; read-out: IC 50 cytotoxicity
Protocol: as §1

human telomerase = human telomerase (Homo sapiens, UniProt O14746); test: Telomerase inhibition, primer extension assay in HeLa cell extract; format: biochemical
Chain of human telomerase (O14746 whole entry): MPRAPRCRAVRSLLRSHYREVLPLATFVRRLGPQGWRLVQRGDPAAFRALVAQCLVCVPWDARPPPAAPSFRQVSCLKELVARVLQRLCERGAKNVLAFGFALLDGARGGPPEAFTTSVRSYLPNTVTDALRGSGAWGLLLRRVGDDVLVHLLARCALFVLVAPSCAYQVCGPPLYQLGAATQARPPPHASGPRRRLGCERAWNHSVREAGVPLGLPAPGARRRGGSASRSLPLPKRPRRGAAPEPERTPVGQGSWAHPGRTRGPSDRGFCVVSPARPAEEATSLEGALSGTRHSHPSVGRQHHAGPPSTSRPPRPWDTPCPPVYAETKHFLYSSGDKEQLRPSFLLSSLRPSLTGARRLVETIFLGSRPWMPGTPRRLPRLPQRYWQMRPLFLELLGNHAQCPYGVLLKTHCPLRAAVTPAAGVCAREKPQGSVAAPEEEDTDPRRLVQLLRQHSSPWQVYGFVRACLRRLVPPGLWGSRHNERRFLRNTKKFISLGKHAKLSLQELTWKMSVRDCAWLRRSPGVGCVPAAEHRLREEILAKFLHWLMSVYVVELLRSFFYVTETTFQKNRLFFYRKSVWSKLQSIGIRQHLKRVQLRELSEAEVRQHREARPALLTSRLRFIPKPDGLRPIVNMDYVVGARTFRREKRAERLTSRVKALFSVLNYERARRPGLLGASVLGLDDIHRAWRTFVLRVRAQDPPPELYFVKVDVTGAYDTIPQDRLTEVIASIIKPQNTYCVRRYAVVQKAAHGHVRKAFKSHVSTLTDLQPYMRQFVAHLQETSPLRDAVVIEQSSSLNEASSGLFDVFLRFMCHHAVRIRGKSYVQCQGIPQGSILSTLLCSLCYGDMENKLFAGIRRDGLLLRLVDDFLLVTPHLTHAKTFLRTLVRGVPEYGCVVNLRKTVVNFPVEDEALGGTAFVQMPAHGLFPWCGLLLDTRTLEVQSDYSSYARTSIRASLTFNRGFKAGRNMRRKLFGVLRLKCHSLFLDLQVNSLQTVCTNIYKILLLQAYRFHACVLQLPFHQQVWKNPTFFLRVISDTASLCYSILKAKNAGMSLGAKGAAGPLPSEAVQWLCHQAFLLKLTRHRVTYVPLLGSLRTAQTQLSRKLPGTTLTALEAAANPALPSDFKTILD

sea urchin embryos = system: sea urchin embryos
Protocol: Lytechinus pictus sea urchins were purchased from Marinus Inc. (Long Beach, Calif.) and maintained at 15° C. in refrigerated aquaria containing Instant Ocean synthetic sea water, following a described procedure [Vafa, 1996 #300]. For polyspermic fertilization, 0.01 vol freshly prepared stock sperm suspension (25 ml ASW containing 2 ml undiluted semen) was added to the eggs suspended for 10 min at 1% concentration in ASW adjusted to pH 9.0 with NH4 OH and stirred at 60 rpm with motor-driven Teflon paddles. Ten min after insemination, the fertilized eggs were allowed to settle, and the supernatant ASW containing sperm was aspirated and replaced with fresh ASW. The embryos were cultured at 18° C. Twenty min after fertilization TMPyP4 or TMPyP4.Pt^II (100 μM final concentration) was added from a concentrated stock in DMSO to 1% embryo suspensions. Equivalent amounts of DMSO (final 0.1%) were added to control egg suspensions. At measured times after insemination, the embryos were pelleted by centrifugation and resuspended in Carnoy's fixative (ethanol:acetic acid, 3:1) for at least 1 hr. After fixation the embryos were pelleted and resuspended successively in: (1) ethanol:acetic acid, 1:1 for 5-15 min: (2) 45% acetic acid for 5-15 min; (3) room temperature 1 N HCl for 1-2 min: (4) 60° C. 1 N HCl for 7-8 min; (5) room temperature 1 N HCl for 1-2 min; (6) Schiffs reagent for 90-120 min; and (7) 45% acetic acid before affixing the embryos to microscope slides. Embryo samples were placed on microscope slides, covered with coverslips, and frozen on a bed of dry ice. After at least 30 min, the coverslips were popped off using a razor blade and the slides were immediately plunged into Coplin jars containing 95% ethanol for 5-10 min. The slides were then transferred to Coplin jars containing 100% ethanol for 3-5 min. After removing the slides and allowing them to air dry, the embryos were mounted with one drop Permount (Fisher) under a coverglass.
The inventors examined whether treatment of the embryos with G-quadroplex interactive agents can cause observable chromosomal abnormalities. A time course of the embryo development was followed in the presence of 10 μM and 100 μM concentrations of TMPyP4 or TMPyP4.Pt^II.

[1] = system: MCF7 human breast carcinoma cells (telomerase activity); test: Telomerase activity in intact MCF7 cells cultured with porphyrin; format: cell-based; details: 1, 10 and 100 μM, days 4, 8 and 15
Protocol: To determine the long-term effects of TMPyP4 on whole cells, MCF7 breast carcinoma cells were cultured in the continuous presence of 1, 10, and 100 μM TMPyP4. The porphyrin solution was freshly added to the medium from the concentrated stock at each passage of the cells (every 3-4 days). On days 4, 8, and 15, the cells were lysed and the telomerase activity was measured in the extracts.
Breast cancer cells MCF-7m, BT20, HS578t and normal HS578Bst cells were grown in culture in T75 flasks (10^6 cells/flask). […] The cells were harvested and freeze-thawed and the extracts used to measure telomerase activity using the Dynabeads method.

[2] = Cytotoxicity (MTT) NHLF normal lung fibroblasts; format: cell-based; details: human, nhlf cells; NHLF (normal), 4-7 days; read-out: IC 50 cytotoxicity
Protocol: as §1
All porphyrins were obtained from Midcentury, Posen, Ill. The experimental work with porphyrins was performed under minimum exposure to light. All human tumor cell lines and normal human breast cells Hs578Bst were purchased from the American Type Culture Collection. Normal human lung fibroblasts NHLF were obtained from Clonetics Corporation. The cell lines were grown according to the suppliers' instructions.

Raji = test: Cytotoxicity (MTT) Raji; format: cell-based, human; details: Homo sapiens; Raji (lymphoma), 4-7 days; read-out: IC 50 cytotoxicity
Protocol: as §1

[3] = system: single-stranded sequence bearing four human telomeric repeats
Protocol: The DNA was labeled with 32p at the 5'-end and stored in buffer (10 mM Tris-HCl, 1 mM EDTA, pH 8.0) at 3000 cpm/μl. For each photocleavage reaction, 10 μl of DNA (~5 ng) was mixed with 10 μl of 200 mM KCl, boiled for 10 min, and cooled to room temperature. For the control studies, 10 μl of distilled water was added instead of the KCl solution. The mixtures were transferred to a 96 well plate, 2 μl of 1 μM aqueous TMPyP4 solution added, and the samples exposed to a 24 W fluorescent day-light under a glass filter for various periods of time. The reactions were stopped with 100 μl of calf thymus DNA (0.1 μg/μl), and after phenol-chloroform extraction, the samples were subjected to strand breakage treatment and ethanol precipitation (Han and Hurley, 1996).
A single-stranded sequence bearing four human telomeric repeats was treated with TMPyP4 and then exposed to light.

Daudi = test: cells; format: cell-based, human; details: Homo sapiens; Daudi (lymphoma), 4-7 days; read-out: IC 50 cytotoxicity
Protocol: as §1

[4] = system: DNA quadruplex in single-stranded template with four telomeric repeats; test: DNA synthesis arrest assay (Taq DNA polymerase); format: biochemical
Protocol: This assay was a modification of that described by Weitzmann et al. (Wang and Patel, 1993). Briefly, primers (24 nM) labeled with [γ-^32 P] ATP were mixed with template DNA PQ74 (12 nM) in a Tris-HCl buffer (10 mM Tris, pH 8.0) containing 10 mM MgCl2 and heated at 90° C. for 4 min. After cooling at room temperature for 15 min, spermidine (to give 100 μM) and TMPyP4 (to give the concentrations indicated in the figure) were added. The primer extension reactions were initiated by adding dNTP (final concentration 100 μM) and Taq DNA polymerase (2.5 U/reaction, Boehringer Mannheim). The reactions were incubated at 55 C. (or otherwise as indicated) for 15 min, then stopped by adding an equal volume of stop buffer (95% formamide, 10 mM EDTA, 10 mM NaOH, 0.1% xylene cyanol, 0.1% bromophenol blue). The products were separated on a 12% polyacrylamide sequencing gel.
A single-stranded DNA template, which included four telomeric repeats, was taken, and an 18-base primer complementary to the […] was extended using Taq DNA polymerase.

in vitro = format: cell-based; details: human, hs578bst cells; HS578 Bst, Thy (n = 3 ± SEM); read-out: Cytotoxicity
Protocol: Cytotoxicity of the compounds to human breast cancer cells in vitro was assessed using a panel of cell lines representing estrogen receptor-positive (BT20, MCF-7m), and a pair of estrogen receptor-negative, transformed breast (11S578t) and normal breast (HS578Bst) cells.
Thy: tritiated […] assay (n = 3 ± SEM)

LNCap = test: Cytotoxicity (MTT) LNCap; format: cell-based, human; details: Homo sapiens; LNCap (prostate), 4-7 days; read-out: IC 50 cytotoxicity
Protocol: as §1

In the case of C[n+]1ccc(-c2c3nc(c(-c4cc[n+](C)cc4)c4ccc([nH]4)c(-c4cc[n+](C)cc4)c4nc(c(-c5cc[n+](C)cc5)c5ccc2[nH]5)C=C4)C=C3)cc1 [TMPyP4, 5,10,15,20-tetra-(N-methyl-4-pyridyl)porphine], the IC50 (DU145) is reported as 93.6 µM, the IC50 (MDA-231) is reported as 44 µM and the “% Inhibition of telomerase” value (human telomerase; 25 µM) is reported as 60%. It also gave an IC50 (human telomerase; IC50 telomerase) of 6.5 ± 1.4 µM, an IC50 (human telomerase; IC50 telomerase (text)) of 6.5 ± 1.4 µM and an IC50 (human telomerase; Telomerase Inhibition) of 15 µM. For the same molecule, the inhibition at 25 µM (human telomerase; read-out: amount of inhibition of telomerase) was 72%, the “differences from controls in embryos” value (sea urchin embryos; 10 μM, 150 min after fertilization) was “no definitive differences were seen” and the “condensed chromosome length / chromosomal effects” value (sea urchin embryos; 100 μM) was “condensed chromosomes were longer than in the untreated controls”. The “proliferation and mitosis in embryos” value (sea urchin embryos; in vivo) was “significantly decreases proliferative rates in the developing embryos and increases the percent of the cell in mitosis”, the toxicity to embryos (sea urchin embryos; in vivo) was “generally non-toxic to the embryos” and the “cell number and morphology of embryos” value (sea urchin embryos; later time points) was “fewer cells, many very misshapen and variable in size relative to the controls”. For the same molecule, the “first signs of ciliary motility” value (sea urchin embryos; treated embryos) was 9 h, the “telomerase activity in intact MCF7 cells” value [1] was “clear concentration-dependent loss of telomerase activity” and the “telomerase activity in intact MCF7 cells” value ([1]; listed as tetra(N-methyl-4-pyridyl)porphyrin) was “telomerase activity is reduced relative to control cells”. The CC50 [2] was 13.5 µM, the IC50 (Raji) was 11.9 µM and the photocleavage selectivity [3] was “clear selectivity for cleavage at the 5'-ApG-3' step at G1 and G7, and 5'-GpT-3' step at G6 and G12”. For the same molecule, the IC50 (Daudi) was 3.1 µM, the “melting temperature of the quadruplex” value [4] was “increased the melting temperature of the quadruplex” and the “pause site band intensity” value ([4]; Tris buffer without K+ or Na+) was “more intense in a concentration-dependent manner”. The “persistence of bands at the pause site” value ([4]; temperature dependence) was “up to 65 °C”, the CC50 (in vitro) was > 100 µM and the IC50 (LNCap) was 22.8 µM.
